Broadly, the GI50 is the concentration giving 50% growth inhibition. By IC50 is commonly meant the midpoint of a concentration-inhibition curve. For orientation: CC50 means the concentration giving 50% cytotoxicity.

Data on two molecules can be found in publication PMC12073635, “Synthesis of Tricyclic and Tetracyclic Lactone Derivatives of Thieno[2,3-b]pyrazine or Thieno[2,3-b]quinoline: Preliminary Antitumor and Antiparasitic Activity Evaluation” (Molecules, 2025).

Entries after “also recorded” stand apart in the source; their conditions may differ. Where only a bound is given, the exact number is not on record here.

The test system of data set [1] is HeLa (cervical carcinoma) cells. The experiment in a line: SRB cell growth inhibition assay, HeLa. The data set is classed as cell-based. As to conditions: Homo sapiens, 72 h, mean ± standard deviation. On the procedure:
(§1) The antitumor potential of the Sonogashira coupling products 2, tricyclic lactones 3 and 5, and tetracyclic lactones 7 was evaluated using the sulforhodamine B (SRB) assay against five human tumor cell lines: colorectal adenocarcinoma (CaCo-2), breast adenocarcinoma (MCF-7), gastric adenocarcinoma (AGS), cervical carcinoma (HeLa), and non-small cell lung cancer (NCI-H460). A primary pig liver cell culture (PLP2) was used to assess the toxicity of compounds.
(§2) The human tumor cell lines used were CaCo-2 (colorectal adenocarcinoma), MCF-7 (breast adenocarcinoma), AGS (gastric adenocarcinoma), HeLa (cervical carcinoma), NCI-H460 (lung carcinoma). Non-tumor cell lines were also tested: PLP2 (primary pig liver culture). All the cell lines were maintained in RPMI-1640 medium supplemented with 10% fetal bovine serum, glutamine (2 mM), penicillin (100 U/mL), and streptomycin ([…]), with the exception of PLP2, which was maintained in DMEM medium supplemented with fetal bovine serum (10%), glutamine and antibiotics. The culture flasks were incubated at 37 °C and with 5% CO2, under a humid atmosphere. The cells were used only when they had 70 to 80% confluence. A known mass of each compound was dissolved in DMSO/H2O (1:1, 1 mL), in order to obtain the stock solutions with a concentration of 1 mM. […] Each compound concentration (10 μL) was incubated with the cell suspension (190 μL) of the cell lines tested in 96-well microplates for 72 h. The microplates were incubated at 37 °C and with 5% CO2 in a humid atmosphere after checking the adherence of the cells. All cell lines were tested at a concentration of 10,000 cells/well. After the incubation period, the cells were treated: TCA (10% w/v; 100 μL) was previously cooled, and plates were incubated for 1 h at 4 °C, washed with water, and, after drying, a SRB solution (0.057%, m/v; 100 μL) was added and left to stand at room temperature for 30 min. To remove non-adhered SRB, plates were washed three times with a solution of acetic acid (1% v/v) and placed to dry. Finally, an adhered SRB was solubilized with Tris (10 mM, 200 μL) and the absorbance at a wavelength of 540 nm was read in the Biotek ELX800 microplate reader. The results obtained by the SRB assay were expressed regarding the concentration compounds that can inhibit cell growth by 50%—GI50. Doxorubicin was used as a positive control.

In data set [2] the test system is NCI-H460 (non-small cell lung cancer) cells. The experiment in a line: SRB cell growth inhibition assay, NCI-H460. In kind it is cell-based. As to conditions: Homo sapiens, 72 h, mean ± standard deviation. The method, then: as §1, §2
For data set [3], the system named is T. brucei Lister 427 bloodstream forms. The data set is described as follows: Resazurin-based anti-T. brucei assay. The data set is classed as cell-based, Trypanosoma brucei. The note with it: 72 h. The method, then:
(§3) The antiparasitic activity of compounds 2c–g, 3a, 5a and 7 was evaluated at a single concentration of 20 μM, against Trypanosoma brucei (T. brucei) and Leishmania infantum (L. infantum) promastigotes. The results are shown in Table 9 together with the cytotoxicity data (CC50) in THP-1–derived macrophages cells.
T. brucei Lister 427 bloodstream forms were grown in a humidified incubator at 37 °C, 5% CO2 in complete HMI-9 medium 1 supplemented with 10% heat-inactivated Fetal Bovine Serum (FBS) and 100 UI/mL penicillin/streptomycin. Parasites maintenance was performed in T25 ventilated flasks by subpassage at a concentration of 1 × 10^4/mL every 2 days on T25 ventilated flasks.
The efficacy of compounds against T. brucei bloodstream forms was evaluated using a modified resazurin-based assay previously described in the literature. Parasites were added to 100 µL of serial dilutions of compounds in supplemented complete medium at a cell density of 5 × 10^3/mL for. As a quality control, a dose–response curve for the antitrypanosomal pentamidine was included in all the assays. The final volume of the assay is 200 µL/well. Each condition was carried out in duplicate. Following 72 h incubation at the specific conditions for T. brucei, 20 µL of a 0.5 mM resazurin solution was added and plates were incubated for a further 4 h under the same conditions. Fluorescence was measured at 544 nm and 590 nm excitation and emission wavelength, respectively, using a Synergy 2 Multi-Mode Reader (Biotek, Winooski, VT, USA). Results were shown as % of parasite growth inhibition compared to control (untreated parasites) and represent the average of at least three independent experiments. The effect was evaluated by the determination of the IC50 value (concentration required to inhibit growth in 50%) and calculated by non-linear regression curves using GraphPad Prism version 8.1.1 for Windows (GraphPad Software, San Diego CA, USA).

A short description of data set [4]: SRB assay, toxicity in non-tumor PLP2 cells. The data set is classed as cell-based, pig. The note with it: PLP2 primary pig liver cells (non-tumor); non-tumor primary pig liver cells, SRB assay, 72 h, mean ± standard deviation. On the procedure:
as §1, §2
For orientation: The SRB assay estimates cell density from bound dye.

For data set [5], the system named is THP-1-derived macrophages. The data set is described as follows: MTT cytotoxicity in THP-1-derived macrophages. In kind it is cell-based, human. The method, then:
(§4) Human leukemia cell line, THP-1 (ATCC® TIB-202™, Manassas, VA, USA) was cultured in RPMI-1640 medium supplemented with 10% heat-inactivated Fetal Bovine Serum (FBS), 2 mM L-glutamine, 100 UI/mL penicillin/streptomycin, 20 mM HEPES. The cell line was maintained in a humidified incubator at 37 °C and 5% CO2 by subculture every three days in 20 mL of media at a concentration of 1 × 10^5/mL in a T75 flask. All cell culture reagents were purchased from Lonza-Bioscience (Morrisville, NC, USA).
(§5) The cytotoxicity effect of compounds on THP-1-derived macrophages was assessed by the colorimetric MTT assay (3-(4,5-dimethylthiazol-2-yl)-2,5-diphenyl tetrazolium bromide). Briefly, THP-1 cells were suspended in RPMI complete medium at a density of 1 × 10^6 cells/mL and 100 μL/well were seeded in a 96-well plate and were differentiated into macrophages by addition of 40 ng/mL of phorbol-myristate 13-acetate (PMA, Sigma, Saint Louis, MI, USA) for 24 h followed by replacement with fresh medium for more 24 h. Subsequently, cells were incubated with 100 μL of compounds ranging from 100 to 12.5 μM after dilution in the RPMI complete medium. Each condition was carried out in quadruplicate. After 72 h of incubation at 37 °C 5% CO2, the medium was removed and 200 μL of 0.5 mg/mL MTT solution diluted in RPMI was added. Plates were incubated for an additional 4 h. Then 160 μL of media was removed and the same volume of 2-propanol was added. Absorbance was read at 570 nm using a Synergy 2 Multi-Mode Reader (Biotek, Winooski, VT, USA). Cytotoxicity was evaluated by the determination of the CC50 value (drug concentration that reduced the percentage of viable cells in 50%) and calculated by non-linear regression analysis using GraphPad Prism version 8.1.1 for Windows (GraphPad Software, San Diego, CA, USA). The results represent the average of at least three independent experiments. For each compound, the Selectivity Index (SI) was calculated as the ratio between cytotoxicity in THP-1 (CC50, 72 h) and activity against parasites (IC50, 72 h).

A short description of data set [6]: MTT cytotoxicity in THP-1-derived macrophages. In kind it is cell-based, human. The note with it: human, THP-1-derived macrophages (PMA-differentiated); MTT, 72 h, tested 100 to 12.5 μM; read-out: CC50 Interval in THP-1-Derived Macrophages. On the procedure:
as §4, §5

Data set [7] concerns AGS (gastric adenocarcinoma) cells. The experiment in a line: SRB cell growth inhibition assay, AGS. The note with it: Homo sapiens, 72 h, mean ± standard deviation. The data set is classed as cell-based. The method, then: as §1, §2
Data set [8] concerns MCF-7 (breast adenocarcinoma) cells. The data set is described as follows: SRB cell growth inhibition assay, MCF-7. In kind it is cell-based, human. The note with it: Homo sapiens, MCF7, 72 h, mean ± standard deviation. On the procedure: as §1, §2
The subject of data set [9] is CaCo-2 (colorectal adenocarcinoma) cells. The experiment in a line: SRB cell growth inhibition assay, CaCo-2. In kind it is cell-based, human. The note with it: Homo sapiens, Caco-2, 72 h, mean ± standard deviation. On the procedure: as §1, §2
Data set [10] relates to L. infantum MHOM/MA/67/ITMAP-263 promastigotes. The experiment in a line: Resazurin-based assay against L. infantum promastigotes. As to conditions: single dose 20 μM, 72 h, no activity = less than 20%. In kind it is cell-based, Leishmania infantum. On the procedure: as §3
L. infantum MHOM/MA/67/ITMAP-263 promastigotes forms were grown at 27 °C, in complete RPMI-1640 medium supplemented with 10% heat-inactivated Fetal Bovine Serum (FBS), 2 mM L-glutamine, 100 UI/mL penicillin/streptomycin, 20 mM HEPES. Parasites maintenance was performed in T25 non-ventilated flasks by subpassage at a concentration of 1 × 10^6/mL every 5 days on T25 non-ventilated flasks.
The compounds’ efficacy against L. infantum promastigotes was evaluated using a resazurin-based assay. Parasites were added to 100 µL of serial dilutions of compounds in supplemented complete medium at a cell density of 5 × 10^5/mL. As a quality control, a dose–response curve to the antileishmanial drug miltefosine was included in all the assays. The final volume of the assay was 200 µL/well. Each condition was carried out in duplicate. Following 72 h of incubation at the specific conditions for L. infantum, 20 µL of a 0.5 mM resazurin solution was added, and the plates were incubated for a further 4 h under the same conditions. The methodology to obtain the results was the same described in Section 3.2.2. for T. brucei.

Turning to `O=c1oc(-c2ccccc2)c(Cl)c2c1sc1nccnc12` [Compound 5a, 9-Chloro-8-phenyl-6H-pyrano[4′,3′:4,5]thieno[2,3-b]pyrazin-6-one], the GI50 in [1] was found to be 35.8 ± 2.08 µM; in [2] it was 51.5 ± 4.18 µM; in [7], 36.3 ± 1.47 µM; in [8], 52.6 ± 3.18 µM; in data set [9], 41.7 ± 1.02 µM. Further, the IC50 is 10.8 µM in [3] (dose-response) and below 11 µM in data set [3] (Trypanosoma brucei, dose-response). Besides, in [3] (dose-response), the “T. brucei IC50” value is given as “low μM range”. This molecule came in with a 50% growth inhibitory concentration (GI50) at 72 h in [4] of 66.8 ± 3.58 µM. Besides, the “cytotoxicity in THP-1-derived macrophages (in words)” value in data set [5] was “some level of toxicity; also recorded: some degree of cytotoxicity”. In [6], the CC50 at 72 h is 50 to 100 µM.
For the molecule `COc1ccc(-c2oc(=O)c3sc4nc5ccccc5cc4c3c2-c2ccc(OC)cc2)cc1` [Compound 7d, 3,4-Bis(4-methoxyphenyl)-1H-pyrano[4′,3′:4,5]thieno[2,3-b]quinolin-1-one], the “L. infantum % of Activity ± ST.DEV (Single Dose 20 μM)” value in data set [10] was “no activity *”. Further, the GI50 is 75.2 ± 6.72 µM in data set [1]; 97.8 ± 6.14 µM in data set [2]; 88.6 ± 5.08 µM in data set [7]; 91.2 ± 8.71 µM in data set [8]; 90 ± 3.29 µM in data set [9]. For the same molecule, the “T. brucei % of Activity ± ST.DEV (Single Dose 20 μM)” value in data set [3] (single dose 20 μM, no activity = less than 20%) is “no activity *”. Further, the GI50 at 72 h in [4] is above 125 µM. Moreover, the CC50 at 72 h in [6] is below 12.5 µM.
